Results taken from article PMC11937972 (JACS Au, 2025).
Read-outs that look alike come from different tables or passages of the source.

Legend:
[1] = target: T1, URAT1^EM (humanized rat URAT1, rURAT1-3M) (Rattus norvegicus, UniProt Q3ZAV1, M481I/N35S/Y365F); assay: cell-based
T1 sequence (Q3ZAV1 1-553 N35S/Y365F/M481I): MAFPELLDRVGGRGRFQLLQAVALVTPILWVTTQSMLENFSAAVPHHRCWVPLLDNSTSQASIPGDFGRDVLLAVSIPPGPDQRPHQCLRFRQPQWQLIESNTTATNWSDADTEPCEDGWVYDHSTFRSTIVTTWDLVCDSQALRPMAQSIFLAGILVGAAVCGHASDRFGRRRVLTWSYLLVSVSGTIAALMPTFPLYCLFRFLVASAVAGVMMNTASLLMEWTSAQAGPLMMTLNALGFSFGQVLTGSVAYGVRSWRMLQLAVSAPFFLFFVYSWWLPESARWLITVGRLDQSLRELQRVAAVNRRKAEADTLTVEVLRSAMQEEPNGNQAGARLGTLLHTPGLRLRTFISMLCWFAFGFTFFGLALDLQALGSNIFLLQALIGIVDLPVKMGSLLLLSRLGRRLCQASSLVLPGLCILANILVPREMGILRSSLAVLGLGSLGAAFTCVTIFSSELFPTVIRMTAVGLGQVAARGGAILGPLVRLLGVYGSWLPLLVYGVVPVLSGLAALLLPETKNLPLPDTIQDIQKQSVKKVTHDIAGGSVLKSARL

[2] = target: T1, URAT1^EM (humanized rat URAT1, rURAT1-3M); assay: cryo-EM structure at […] Å; format: cell-based
[3] = target: T2, human URAT1 (hURAT1) (Homo sapiens, UniProt Q96S37); assay: inhibition of urate uptake in transfected HEK293T cells; format: cell-based
T2 sequence (Q96S37 1-553): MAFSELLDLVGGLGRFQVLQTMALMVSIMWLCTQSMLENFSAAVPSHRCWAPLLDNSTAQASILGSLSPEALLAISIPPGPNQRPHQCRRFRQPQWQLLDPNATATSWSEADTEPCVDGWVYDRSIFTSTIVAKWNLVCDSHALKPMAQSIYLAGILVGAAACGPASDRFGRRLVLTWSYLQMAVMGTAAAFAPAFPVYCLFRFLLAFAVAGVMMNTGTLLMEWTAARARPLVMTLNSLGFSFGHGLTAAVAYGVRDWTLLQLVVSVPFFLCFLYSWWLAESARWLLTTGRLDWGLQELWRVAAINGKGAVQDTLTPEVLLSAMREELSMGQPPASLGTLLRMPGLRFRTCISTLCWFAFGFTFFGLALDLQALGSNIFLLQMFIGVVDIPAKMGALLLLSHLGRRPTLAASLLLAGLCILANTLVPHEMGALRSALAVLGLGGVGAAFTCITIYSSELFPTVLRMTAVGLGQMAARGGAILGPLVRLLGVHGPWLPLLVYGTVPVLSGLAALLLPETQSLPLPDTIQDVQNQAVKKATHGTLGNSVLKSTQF

[4] = substrate: O=c1[nH]c(=O)c2[nH]c(=O)[nH]c2[nH]1; assay: concentration-dependent urate uptake in HEK293T cells, Km; format: cell-based, Homo sapiens
[5] = substrate: O=c1[nH]c(=O)c2[nH]c(=O)[nH]c2[nH]1; assay: as above; format: cell-based, Rattus norvegicus

**Q.** With `CCc1oc2ccccc2c1C(=O)c1cc(Br)c(O)c(Br)c1` [BEN, benzbromarone] as the molecule, how does the IC50 [1] read?
**A.** 425 nM

**Q.** `CC(C)(Sc1ccncc1-c1ccc(C#N)c2ccccc12)C(=O)O` [VER, verinurad] was tested. Which IC50 [2] did it give?
**A.** 150 nM

**Q.** And the IC50 [3]?
**A.** Inhibition of human URAT1 WT and variants by verinurad.

B1: human URAT1 (hURAT1) (Homo sapiens) (protein)
chain: T2 sequence (Q96S37 1-553)
**Q.** With B1 as the molecule, how does the Km [4] read?
**A.** 80 µM

B2: URAT1^EM (humanized rat URAT1, rURAT1-3M) (Rattus norvegicus; M481I/N35S/Y365F) (protein)
chain: T1 sequence (Q3ZAV1 1-553 N35S/Y365F/M481I)
**Q.** Which Km [5] does the source give for B2 here?
**A.** 203 µM
